Data: US12421257B2, “Compositions and methods for inhibiting group II intron RNA” (YALE UNIVERSITY, priority 2018, dated 2025)
In brackets after ≈: the same amount, converted by molar mass. Where two headings read alike, the source gives them in different places.

Legend:
[1] = test system: ai5γ group II intron (D135 ribozyme); test: Fluorescent D135 ribozyme cleavage assay (IC50); type: biochemical, Saccharomyces cerevisiae; details: for IC50: D135 ribozyme cleavage of substrate 17/2 DL, 100 mM MgCl2, 500 mM KCl, 37° C., 10 minutes; for In vitro inhibitory activity, SAR statement (in words): relative to parent scaffold
Outline: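 D135 ribozyme (20 nM) with double-labeled substrate 17/2 DL (20 nM) in 50 mM MOPS pH 7.0, 100 mM MgCl2, 0.5 M KCl; 19 inhibitor concentrations, 5 nM–1 mM, 10 min at 37 °C, EDTA quench, fluorescence read. Triplicates fit to 4-parameter logistic for IC50; mean±s.e.m.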

[2] = biological target: ai5γ group II intron; test: Radioanalytic self-splicing assay of SE RNA (Ki); type: biochemical, Saccharomyces cerevisiae; details: 8 mM MgCl2, 100 mM KCl, pH 7.5, 30° C.
Outline: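 Internally labeled SE RNA (2 nM) self-spliced with varying inhibitor in 50 mM MOPS pH 7.5, 8 mM MgCl2, 100 mM KCl at 30° C; time points resolved on 5% denaturing PAGE. kobs from single-exponential fits, Ki from non-competitive model kobs=kmax/(1+[I]/Ki); mean±s.e.m. of 2–4 runs.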

[3] = test system: S. cerevisiae; test: Yeast respiration assay in S. cerevisiae (MIC in YPD / YPGE); type: cell-based, Saccharomyces cerevisiae; details: Saccharomyces cerevisiae, 30° C.
Method: Yeast respiration assays were conducted either in liquid YPD media (BD Bacto Yeast Extract, BD Bacto Peptone, 2% glucose) or in YPGE media (BD Bacto Yeast Extract, BD Bacto Peptone, 3% glycerol, 3% ethanol), essentially as described for the antifungal MIC assays (see below). To initiate these experiments, 100 μl of a fresh stock solution was prepared for each compound (3.2 mg/ml for Amphotericin B and 12.8 mg/ml for each test compounds) in DMSO. This concentrated stock solution was placed in the first well of 12-well row on a 96-well plate. The subsequent nine wells in this row contained 50 μl of DMSO for serial dilution. From the first well, 50 μl of the compound stock was withdrawn, transferred to the second well and mixed. This process was repeated from the second and subsequent wells, resulting in a 1:2 serial dilution of the stock into DMSO. Wells 11 and 12 contained DMSO only, to be used as no compound control and sterility control, with no inoculum added, respectively. After preparing this plate, 2.5 μl from each of the 12 wells was transferred to the wells of a separate 96-well plate, each of which contained 122.5 μl of YPD or YPGE medium, resulting in a set of serial dilutions of compound into growth media in a volume of 125 μl. Then 50 μl from each of these dilutions were transferred onto a third 96-well plate (the assay plate) and mixed with an equal volume (50 μl) of freshly prepared yeast inoculum in YPD or YPGE medium set to provide 0.5×10^3 to 2.5×10^3 colony forming units per 1 mL (wells 1-11), or YPD/YPGE alone (sterility control, well 12). The final compound concentration range of the assay was 0.25-128 μg/ml for test compounds and 0.0625-32 μg/ml for Amphotericin B. The final concentration of DMSO was 1%. Plates were incubated at 30° C. and visually analyzed for turbidity after 24 and 48 hours of incubation. The lowest compound concentration at which no growth was apparent is reported as the MIC (Table 1). All experiments were performed in triplicate.

[4] = YPD medium, read-out: MIC in YPD (glucose)
[5] = YPGE medium, read-out: MIC in YPGE (glycerol)

Row | Structure (SMILES) | IC50 [1] | In vitro inhibitory activity, SAR statement (in words) [1] | Ki [2] | MIC [3, 4] | MIC [3, 5]
1 | O=C1/C(=C/c2cc(O)cc(O)c2)Oc2cc(O)cc(O)c21 [APY-014, (Z)-2-(3,5-Dihydroxybenzylidene)-4,6-dihydroxybenzofuran-3(2H)-one] | 266 ± 37 µM | nearly complete loss of activity | 251 ± 31 µM | > 128 mg/L | > 128 mg/L
2 | Cc1ccncc1-c1ccc2oc(C(=O)c3cc(O)c(O)c(O)c3)cc2c1 [APY-081, 5-{[5-(4-Methylpyridin-3-yl)-1-benzofuran-2-yl]carbonyl}benzene-1,2,3-triol] | 6.8 ± 1.1 µM |  | 5.3 ± 0.2 µM | > 128 mg/L | 32 mg/L (≈ 88.6 µM)
3 | O=C(c1cc(O)c(O)c(O)c1)c1cc2cc(-c3ccc(CO)cc3)ccc2o1 [APY-084, 5-({5-[4-(Hydroxymethyl)phenyl]-1-benzofuran-2-yl}carbonyl)benzene-1,2,3-triol] | 0.9 ± 0.1 µM |  | 1.3 ± 0.4 µM | > 128 mg/L | 16 to 32 mg/L (≈ 42.5 to 85 µM)
4 | Br.CCN(CC)Cc1ccc(-c2ccc3oc(C(=O)c4cc(O)c(O)c(O)c4)cc3c2)cc1 [APY-090, 5-[(5-{4-[(Diethylamino)methyl]phenyl}-1-benzofuran-2-yl)carbonyl]benzene-1,2,3-triol hydrobromide] | 2.1 ± 0.4 µM |  | 0.37 ± 0.04 µM | > 128 mg/L | 64 mg/L
5 | CCCCNS(=O)(=O)c1ccc(-c2ccc(-c3nc(-c4cc(O)c(O)c(O)c4)cs3)cc2)cc1 [APY-093, N-Butyl-4-{4-[4-(3,4,5-trihydroxyphenyl)-1,3-thiazol-2-yl]phenyl}benzene-1-sulfonamide] | 86 ± 3 µM | substantial loss of activity | 53 ± 5 µM | > 128 mg/L | > 128 mg/L
6 | CC(=O)c1ccc(-c2ccc3oc(C(=O)c4cc(O)c(O)c(O)c4)cc3c2)cc1 [APY-101, 1-(4-{2-[(3,4,5-Trihydroxyphenyl)carbonyl]-1-benzofuran-5-yl}phenyl)ethan-1-one] | 1.5 ± 0.1 µM |  | 2.1 ± 0.2 µM | > 128 mg/L | 32 mg/L (≈ 82.4 µM)
